pIC50, pKi: −log10 of the molar value. Read-outs that look alike come from different tables or passages of the source.
Biological target: PLK1 (Homo sapiens, UniProt P53350)
Assay: PLK1 protein kinase assay (CDC25C phosphorylation, [γ-32P]-ATP)
Assay type: biochemical
Details: for pIC50: read-out: PLK1 IC50
[1] = Table 2, PLK1 IC50, class symbols

PLK1, sequence (P53350 whole entry): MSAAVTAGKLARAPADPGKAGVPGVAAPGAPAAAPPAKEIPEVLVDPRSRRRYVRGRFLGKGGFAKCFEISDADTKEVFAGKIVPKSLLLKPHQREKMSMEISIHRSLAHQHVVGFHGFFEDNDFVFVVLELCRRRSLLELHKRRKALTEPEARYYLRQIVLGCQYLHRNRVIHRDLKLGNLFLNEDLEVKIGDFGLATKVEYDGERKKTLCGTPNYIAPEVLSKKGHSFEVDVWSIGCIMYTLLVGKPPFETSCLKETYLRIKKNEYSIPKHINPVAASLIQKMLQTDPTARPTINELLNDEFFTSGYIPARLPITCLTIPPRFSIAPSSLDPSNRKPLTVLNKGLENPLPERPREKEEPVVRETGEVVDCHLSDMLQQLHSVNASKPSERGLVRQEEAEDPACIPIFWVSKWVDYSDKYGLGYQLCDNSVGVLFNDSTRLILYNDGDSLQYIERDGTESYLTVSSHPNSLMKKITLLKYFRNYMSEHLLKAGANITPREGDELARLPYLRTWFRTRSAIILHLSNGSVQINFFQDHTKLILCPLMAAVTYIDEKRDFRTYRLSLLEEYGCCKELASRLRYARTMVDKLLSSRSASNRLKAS

pIC50 (Table 3) | pKi (Table 6) | SMILES | pIC50 [1]
> 7.00 | – | COc1cc(C(=O)NN2CCN(C)CC2)ccc1Nc1ncc2c(n1)N(C1CCCC1)CC(C)(C)C(=O)N2C [Compound 195, 4-(9-Cyclopentyl-5,7,7-trimethyl-6-oxo-6,7,8,9-tetrahydro-5H-pyrimido[4,5-b][1,4]diazepin-2-ylamino)-3-methoxy-N-(4-methyl-piperazin-1-yl)-benzamide] | > 7.00
> 7.00 | – | COc1cc(C(=O)NN2CCN(C)CC2)ccc1Nc1ncc2c(n1)N(C1CCCC1)CC1(CCC1)C(=O)N2C [Compound 221, 4-(9′-cyclopentyl-5′-methyl-6′-oxo-5′,6′,8′,9′-tetrahydrospiro[cyclobutane-1,7′-pyrimido[4,5-b][1,4]diazepine]-2′-ylamino)-3-methoxy-N-(4-methylpiperazin-1-yl)benzamide] | > 7.00
> 7.00 | > 8.00 | COc1cc(C(=O)NN2CCN(C)CC2)ccc1Nc1ncc2c(n1)N(C1CCCC1)CC1(CC1)C(=O)N2C [Compound 254, 4-(9′-cyclopentyl-5′-methyl-6′-oxo-5′,6′,8′,9′-tetrahydrospiro[cyclopropane-1,7′-pyrimido[4,5-b][1,4]diazepine]-2′-ylamino)-3-methoxy-N-(4-methylpiperazin-1-yl)benzamide] | > 7.00
> 7.00 | – | COc1cc(C(=O)NC2CCN(C3CCOCC3)CC2)ccc1Nc1ncc2c(n1)N(C1CCCC1)CCC(=O)N2C [Compound 345, 4-(9-Cyclopentyl-5-methyl-6-oxo-6,7,8,9-tetrahydro-5H-pyrimido[4,5-b][1,4]diazepin-2-ylamino)-3-methoxy-N-[1-(tetrahydro-pyran-4-yl)-piperidin-4-yl]-benzamide] | > 7.00
> 7.00 | – | COc1cc(C(=O)N[C@H]2CC[C@H](N3CCN(CC4CC4)CC3)CC2)ccc1Nc1ncc2c(n1)N(C1CCCC1)CC1(CC1)C(=O)N2C [Compound 371, 4-(9′-cyclopentyl-5′-methyl-6′-oxo-5′,6′,8′,9′-tetrahydrospiro[cyclopropane-1,7′-pyrimido[4,5-b][1,4]diazepine]-2′-ylamino)-N-((trans)-4-(4-(cyclopropylmethyl)piperazin-1-yl)cyclohexyl)-3-methoxybenzamide] | –
> 7.00 | – | CN1CCN(NC(=O)c2ccc(Nc3ncc4c(n3)N(C3CCCC3)CC3(CCC3)C(=O)N4C)c(F)c2)CC1 [Compound 373, 4-(9′-cyclopentyl-5′-methyl-6′-oxo-5′,6′,8′,9′-tetrahydrospiro[cyclobutane-1,7′-pyrimido[4,5-b][1,4]diazepine]-2′-ylamino)-3-fluoro-N-(4-methylpiperazin-1-yl)benzamide] | –
> 7.00 | – | CN1CCN(NC(=O)c2ccc(Nc3ncc4c(n3)N(C3CCCC3)CC3(CC3)C(=O)N4C)c(F)c2)CC1 [Compound 374, 4-(9′-Cyclopentyl-5′-methyl-6′-oxo-5′,6′,8′,9′-tetrahydrospiro[cyclopropane-1,7′-pyrimido[4,5-b][1,4]diazepine]-2′-ylamino)-3-fluoro-N-(4-methylpiperazin-1-yl)benzamide] | –
> 7.00 | – | COc1cc(C(=O)NN2CCN(CCO)CC2)ccc1Nc1ncc2c(n1)N(C1CCCC1)CC1(CC1)C(=O)N2C [Compound 375, 4-(9′-Cyclopentyl-5′-methyl-6′-oxo-5′,6′,8′,9′-tetrahydrospiro[cyclopropane-1,7′-pyrimido[4,5-b][1,4]diazepine]-2′-ylamino)-N-(4-(2-hydroxyethyl)piperazin-1-yl)-3-methoxybenzamide] | –
> 7.00 | – | COc1cc(C(=O)NN2CCOCC2)ccc1Nc1ncc2c(n1)N(C1CCCC1)CC1(CC1)C(=O)N2C [Compound 376, 4-(9′-Cyclopentyl-5′-methyl-6′-oxo-5′,6′,8′,9′-tetrahydrospiro[cyclopropane-1,7′-pyrimido[4,5-b][1,4]diazepine]-2′-ylamino)-3-methoxy-N-morpholinobenzamide] | –
> 7.00 | – | COc1cc(C(=O)N[C@H]2CC[C@H](N3CCN(CC4CC4)CC3)CC2)ccc1Nc1ncc2c(n1)N(C1CCCC1)CC1(CCC1)C(=O)N2C [Compound 377, 4-(9′-cyclopentyl-5′-methyl-6′-oxo-5′,6′,8′,9′-tetrahydrospiro[cyclobutane-1,7′-pyrimido[4,5-b][1,4]diazepine]-2′-ylamino)-N-((trans)-4-(4-(cyclopropylmethyl)piperazin-1-yl)cyclohexyl)-3-methoxybenzamide] | –
> 7.00 | – | COc1cc(C(=O)N[C@H]2CC[C@H](N3CCN(CC4CC4)CC3)CC2)ccc1Nc1ncc2c(n1)N(C1CCCC1)CCC(=O)N2C [Compound 378, 4-(9-cyclopentyl-5-methyl-6-oxo-6,7,8,9-tetrahydro-5H-pyrimido[4,5-b][1,4]diazepin-2-ylamino)-N-((trans)-4-(4-(cyclopropylmethyl)piperazin-1-yl)cyclohexyl)-3-methoxybenzamide] | –
> 7.00 | – | CCN1CCN([C@H]2CC[C@H](NC(=O)c3ccc(Nc4ncc5c(n4)N(C4CCCC4)CC4(CC4)C(=O)N5C)c(OC)c3)CC2)CC1 [Compound 379, 4-(9′-cyclopentyl-5′-methyl-6′-oxo-5′,6′,8′,9′-tetrahydrospiro[cyclopropane-1,7′-pyrimido[4,5-b][1,4]diazepine]-2′-ylamino)-N-((trans)-4-(4-ethylpiperazin-1-yl)cyclohexyl)-3-methoxybenzamide] | –
> 7.00 | – | CCN1CCN([C@H]2CC[C@@H](NC(=O)c3ccc(Nc4ncc5c(n4)N(C4CCCC4)CC4(CC4)C(=O)N5C)c(OC)c3)CC2)CC1 [Compound 380, 4-(9′-cyclopentyl-5′-methyl-6′-oxo-5′,6′,8′,9′-tetrahydrospiro[cyclopropane-1,7′-pyrimido[4,5-b][1,4]diazepine]-2′-ylamino)-N-((cis)-4-(4-ethylpiperazin-1-yl)cyclohexyl)-3-methoxybenzamide] | –
> 7.00 | – | COc1cc(C(=O)NC2CCC(N3CCCN(CC4CC4)CC3)CC2)ccc1Nc1ncc2c(n1)N(C1CCCC1)CC1(CC1)C(=O)N2C (centres unmarked) [Compound 381, 4-(9′-cyclopentyl-5′-methyl-6′-oxo-5′,6′,8′,9′-tetrahydrospiro[cyclopropane-1,7′-pyrimido[4,5-b][1,4]diazepine]-2′-ylamino)-N-(4-(4-(cyclopropylmethyl)-1,4-diazepan-1-yl)cyclohexyl)-3-methoxybenzamide] | –
> 7.00 | – | CCN1CCCN(C2CCC(NC(=O)c3ccc(Nc4ncc5c(n4)N(C4CCCC4)CC4(CC4)C(=O)N5C)c(OC)c3)CC2)CC1 (centres unmarked) [Compound 382, 4-(9′-cyclopentyl-5′-methyl-6′-oxo-5′,6′,8′,9′-tetrahydrospiro[cyclopropane-1,7′-pyrimido[4,5-b][1,4]diazepine]-2′-ylamino)-N-(4-(4-ethyl-1,4-diazepan-1-yl)cyclohexyl)-3-methoxybenzamide] | –
6.00 to 7.00 | – | COc1cc(C(=O)NC2CCC(N3CCCN(Cc4ccccc4)CC3)CC2)ccc1Nc1ncc2c(n1)N(C1CCCC1)CC1(CC1)C(=O)N2C (centres unmarked) [Compound 383, N-(4-(4-benzyl-1,4-diazepan-1-yl)cyclohexyl)-4-(9′-cyclopentyl-5′-methyl-6′-oxo-5′,6′,8′,9′-tetrahydrospiro[cyclopropane-1,7′-pyrimido[4,5-b][1,4]diazepine]-2′-ylamino)-3-methoxybenzamide] | –
> 7.00 | – | COc1cc(C(=O)N[C@H]2CC[C@H](N3CCN(C)CC3)CC2)ccc1Nc1ncc2c(n1)N(C1CCCC1)CC1(CC1)C(=O)N2C [Compound 384, 4-(9′-cyclopentyl-5′-methyl-6′-oxo-5′,6′,8′,9′-tetrahydrospiro[cyclopropane-1,7′-pyrimido[4,5-b][1,4]diazepine]-2′-ylamino)-N-((trans)-4-(4-methylpiperazin-1-yl)cyclohexyl)-3-methoxybenzamide] | –
> 7.00 | – | COc1cc(C(=O)N[C@H]2CC[C@@H](N3CCN(C)CC3)CC2)ccc1Nc1ncc2c(n1)N(C1CCCC1)CC1(CC1)C(=O)N2C [Compound 385, 4-(9′-cyclopentyl-5′-methyl-6′-oxo-5′,6′,8′,9′-tetrahydrospiro[cyclopropane-1,7′-pyrimido[4,5-b][1,4]diazepine]-2′-ylamino)-N-((cis)-4-(4-methylpiperazin-1-yl)cyclohexyl)-3-methoxybenzamide] | –
> 7.00 | – | COc1cc(C(=O)N[C@H]2CC[C@H](N3CCN(Cc4ccccc4)CC3)CC2)ccc1Nc1ncc2c(n1)N(C1CCCC1)CC1(CC1)C(=O)N2C [Compound 386, N-((trans)-4-(4-benzylpiperazin-1-yl)cyclohexyl)-4-(9′-cyclopentyl-5′-methyl-6′-oxo-5′,6′,8′,9′-tetrahydrospiro[cyclopropane-1,7′-pyrimido[4,5-b][1,4]diazepine]-2′-ylamino)-3-methoxybenzamide] | –

SMILES | pIC50 (Table 3) | pKi (Table 6) | pIC50 [1]
COc1cc(C(=O)NC2CN3CCC2CC3)ccc1Nc1ncc2c(n1)N(C1CCCC1)CC1(CC1)C(=O)N2C (racemic) [Compound 186, (±)-4-(9′-cyclopentyl-5′-methyl-6′-oxo-5′,6′,8′,9′-tetrahydrospiro[cyclopropane-1,7′-pyrimido[4,5-b][1,4]diazepine]-2′-ylamino)-3-methoxy-N-(quinuclidin-3-yl)benzamide] | > 7.00 | – | > 7.00
COc1cc(C(=O)NC2CN3CCC2CC3)ccc1Nc1ncc2c(n1)N(C1CCCC1)CC(C)(C)C(=O)N2C (racemic) [Compound 194, (±)-4-(9-cyclopentyl-5,7,7-trimethyl-6-oxo-6,7,8,9-tetrahydro-5H-pyrimido[4,5-b][1,4]diazepin-2-ylamino)-3-methoxy-N-(quinuclidin-3-yl)benzamide] | > 7.00 | – | > 7.00
COc1cc(C(=O)N[C@H]2CN3CCC2CC3)ccc1Nc1ncc2c(n1)N(C1CCCC1)CC1(CC1)C(=O)N2C [Compound 347, (R)-4-(9′-cyclopentyl-5′-methyl-6′-oxo-5′,6′,8′,9′-tetrahydrospiro[cyclopropane-1,7′-pyrimido[4,5-b][1,4]diazepine]-2′-ylamino)-3-methoxy-N-(quinuclidin-3-yl)benzamide] | > 7.00 | – | > 7.00
COc1cc(C(=O)N[C@@H]2CN3CCC2CC3)ccc1Nc1ncc2c(n1)N(C1CCCC1)CC1(CC1)C(=O)N2C [Compound 348, (S)-4-(9′-cyclopentyl-5′-methyl-6′-oxo-5′,6′,8′,9′-tetrahydrospiro[cyclopropane-1,7′-pyrimido[4,5-b][1,4]diazepine]-2′-ylamino)-3-methoxy-N-(quinuclidin-3-yl)benzamide] | > 7.00 | – | > 7.00
